Results taken from patent EP2519511B1, “NOVEL PIPERINE DERIVATIVES AS GABA-A RECEPTORS MODULATORS” (Universität Wien, priority 2009, dated 2011).
“And” between values parts separate entries of the source, which are not always exact repeats. Equal values may be shown once.

How the values were obtained:
[1] = target: GABAA channels composed of α1β2γ2 subunits (Homo sapiens, UniProt P14867+P18507+P47870); assay: Modulation of IGABA, two-microelectrode voltage clamp in Xenopus laevis oocytes; assay type: cell-based; details: α1β2γ2, GABA EC5-10, Fig. 2
Procedure: The following paragraphs describe the preparation of oocytes expressing the specific GABAA receptor subtype composed of α1, β2 and γ2 subunits and the subsequent analysis of the concentration-response curves of the stimulation of chloride currents through GABAA receptors (IGABA).
Preparation of stage V-VI oocytes from Xenopus laevis, synthesis of capped off run-off poly(A^+) cRNA transcripts from linearized cDNA templates (pCMV vector) was performed as described (Khom et al. 2006). Briefly, female Xenopus laevis (NASCO, USA) were anaesthetised by exposing them for 15 minutes to a 0.2 % solution of MS-222 (methane sulfonate salt of 3-aminobenzoic acid ethyl ester; Sandoz) before surgically removing parts of the ovaries. Follicle membranes from isolated oocytes were enzymatically digested with 2 mg/ml collagenase (Type 1A, Sigma). One day after isolation, the oocytes were injected with about […] of DEPC- treated water (diethyl pyrocarbonate, Sigma, Germany) containing the different cRNAs (encoding for α1, β2 and γ2 subunits) at a concentration of approximately 300 - 3000 pg/µl/subunit. The amount of cRNA was determined by means of a NanoDrop ND-1000 (Kiskerbiotech, Steinfurt, Germany).
Oocytes were stored at 18°C in ND96 solution (Methfessel et al., 1986). […]
Stimulation of chloride currents by modulators of the GABAA receptor was measured at a GABA concentration eliciting between 5 and 10 % of the maximal current amplitude (EC5-10). The EC5-10 was determined at the beginning of each experiment.
Enhancement of the chloride current was defined as (I(GABA+Comp)/IGABA) - 1, where I(GABA+Comp) is the current response in the presence of a given compound (piperine or piperin derivatives) and IGABA is the control GABA current. […] Statistical significance was calculated using paired Student t-test with a confidence interval of p < 0.05 (Khom et al., 2007). […]

[2] = target: human TRPV1 receptor (hTRPV1) (Homo sapiens, UniProt Q8NER1); assay: Activation of cation current through TRPV1 expressed in Xenopus oocytes; assay type: cell-based; details: 300 µM applied to oocytes, Fig. 4
Procedure: cRNA encoding for the human TRPV1 receptor (hTRPV1) was injected into Xenopus oocytes as previously described (Hu et al. 2004).

Male mice (C57BI/6N) [3] = assay: Elevated Plus Maze test (EPM); assay type: in vivo; details: for total distance travelled in the EPM: compared to control
Procedure: (§1) Piperine was isolated from Piper nigrum as described by Zaugg et al. (2010) and obtained from SigmaAldrich (Vienna, Austria), respectively. Piperine derivatives were synthesized as described above. Stock solutions (1mg/10 µl) were prepared in DMSO (Dimethyl Sulfoxide, Sigma, Austria).Working concentrations were adjusted by dilution with 0.9% sodiumchloride. pH was adjusted to 7.2-7.4 with NaOH. For better solubility 3% of Tween80 was added to all solutions. All solutions were freshly prepared every day prior to experiments. Care was taken for equal amounts of DMSO in the actein and control solutions.
(§2) Male mice (C57BI/6N) were obtained from Charles River Laboratories (Germany). For breeding and maintenance mice were group housed with free access to food and water. Temperature was fixed to 23±1 °C and 60% humidity with a 12 h light-dark cycle (lights on 0700-1900 hours). Male mice at 3-6 months age were tested in all experiments. Every effort was taken to minimize the number of animals used (Khom et al., 2010).
The animals's behavior was tested over 5 min on an elevated plus maze 1 m above ground consisting of two closed and two open arms, each 50x5 cm in size (Khom et al., 2010). The test instrument was built from gray PVC; the height of closed arm walls was 20 cm. Illumination was set to 180 lux. Animals were placed in the center, facing an open arm. Analysis of open and closed arm entries and time on open arm was automatically done with Video-Mot 2 equipment and software (Khom et al., 2010).

Male mice (C57BI/6N) [4] = assay: Open Field test (OF); assay type: in vivo; details: 30 mg/kg bodyweight; for effect on total ambulation / total distance: 30 min after i.p. injection, Fig. 11B
Procedure: as §1, §2
Ambulation was tested over 10 min in a 50x50 cm flexfield box equipped with infrared rearing detection. Illumination was set to 150 lux. Animals were video monitored and their explorative behavior was analyzed using the Actimot 2 equipment and software (TSE-systems, Bad Homburg, Germany). Arenas were subdivided into border (up to 8 cm from wall), center (20x20 cm, i.e. 16% of total area), and intermediate area according to the recommendations of EMPRESS (European Mouse Phenotyping Resource of Standardised Screens; http://empress.har.mrc.ac.uk).

PTZ-induced seizures = assay: Seizure threshold by PTZ tail-vein infusion; assay type: in vivo, mice; details: for effects on seizure threshold: PTZ 30 min after i.p. injection; for seizure threshold: 30 min after i.p. injection
Procedure: as §1, §2
Seizure threshold was determined by PTZ tail-vein infusion on freely moving animals at a rate of 100 µl/min ([…] PTZ in saline, pH 7.4). […] Animals were immediately killed by cervical displacement after the first generalized seizure. The seizure threshold dose was calculated from the infused volume in relation to body weight (Loacker et al. 2007). Piperine and piperine derivatives were applied at doses from 0.1 to 30 mg/kg 30 min before PTZ infusion. Control animals were pretreated with 10 % DMSO in saline containing 3 % Tween 80 (i. e. the solvent for all piperine doses).

human TRPV1 receptor (hTRPV1), sequence (Q8NER1 whole entry): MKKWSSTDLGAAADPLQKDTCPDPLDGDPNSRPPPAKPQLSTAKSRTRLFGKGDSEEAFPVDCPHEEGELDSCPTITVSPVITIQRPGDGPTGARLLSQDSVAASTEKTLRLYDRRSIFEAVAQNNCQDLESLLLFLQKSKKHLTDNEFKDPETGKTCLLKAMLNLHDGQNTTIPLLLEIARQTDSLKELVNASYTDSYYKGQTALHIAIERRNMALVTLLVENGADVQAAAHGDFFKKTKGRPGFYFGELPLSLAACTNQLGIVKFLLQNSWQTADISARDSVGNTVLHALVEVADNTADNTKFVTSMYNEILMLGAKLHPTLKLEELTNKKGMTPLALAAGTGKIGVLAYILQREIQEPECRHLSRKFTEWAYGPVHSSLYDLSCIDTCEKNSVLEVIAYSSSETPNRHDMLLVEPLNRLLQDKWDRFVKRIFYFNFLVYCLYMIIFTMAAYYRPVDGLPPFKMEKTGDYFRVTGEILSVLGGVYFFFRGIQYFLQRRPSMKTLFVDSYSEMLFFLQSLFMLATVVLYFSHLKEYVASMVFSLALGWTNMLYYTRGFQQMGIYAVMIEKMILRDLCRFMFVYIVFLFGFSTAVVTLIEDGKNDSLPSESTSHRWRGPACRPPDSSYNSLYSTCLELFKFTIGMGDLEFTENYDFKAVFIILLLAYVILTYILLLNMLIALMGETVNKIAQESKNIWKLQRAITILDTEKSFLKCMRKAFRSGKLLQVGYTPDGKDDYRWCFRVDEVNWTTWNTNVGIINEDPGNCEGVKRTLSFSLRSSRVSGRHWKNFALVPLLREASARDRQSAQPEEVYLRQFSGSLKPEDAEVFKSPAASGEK
GABAA channels composed of α1β2γ2 subunits, sequence (P14867 28-456): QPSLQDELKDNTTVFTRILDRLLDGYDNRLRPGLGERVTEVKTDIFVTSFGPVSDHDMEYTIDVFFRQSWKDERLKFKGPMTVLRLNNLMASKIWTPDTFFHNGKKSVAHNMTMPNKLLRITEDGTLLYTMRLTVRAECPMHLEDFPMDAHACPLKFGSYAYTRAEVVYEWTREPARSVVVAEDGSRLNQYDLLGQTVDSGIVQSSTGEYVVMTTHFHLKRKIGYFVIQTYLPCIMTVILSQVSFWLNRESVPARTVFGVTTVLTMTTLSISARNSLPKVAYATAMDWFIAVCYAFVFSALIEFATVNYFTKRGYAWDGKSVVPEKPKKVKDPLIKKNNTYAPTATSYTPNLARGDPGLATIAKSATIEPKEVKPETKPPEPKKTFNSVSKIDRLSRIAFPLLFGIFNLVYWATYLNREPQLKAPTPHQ
GABAA channels composed of α1β2γ2 subunits, sequence (P47870 25-512 limits assumed): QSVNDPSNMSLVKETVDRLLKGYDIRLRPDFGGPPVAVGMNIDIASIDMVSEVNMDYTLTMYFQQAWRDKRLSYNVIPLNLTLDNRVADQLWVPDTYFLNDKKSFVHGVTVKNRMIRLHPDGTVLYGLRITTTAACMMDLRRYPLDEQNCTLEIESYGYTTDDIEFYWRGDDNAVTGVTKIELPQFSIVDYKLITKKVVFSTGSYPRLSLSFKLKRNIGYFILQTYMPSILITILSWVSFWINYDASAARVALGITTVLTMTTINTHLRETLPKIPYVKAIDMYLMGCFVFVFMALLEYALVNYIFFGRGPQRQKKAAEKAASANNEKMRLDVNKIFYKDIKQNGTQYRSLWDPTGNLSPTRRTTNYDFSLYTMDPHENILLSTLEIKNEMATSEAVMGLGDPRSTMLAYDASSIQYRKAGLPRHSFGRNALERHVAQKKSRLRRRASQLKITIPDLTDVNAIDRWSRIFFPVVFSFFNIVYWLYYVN
GABAA channels composed of α1β2γ2 subunits, sequence (P18507 40-475): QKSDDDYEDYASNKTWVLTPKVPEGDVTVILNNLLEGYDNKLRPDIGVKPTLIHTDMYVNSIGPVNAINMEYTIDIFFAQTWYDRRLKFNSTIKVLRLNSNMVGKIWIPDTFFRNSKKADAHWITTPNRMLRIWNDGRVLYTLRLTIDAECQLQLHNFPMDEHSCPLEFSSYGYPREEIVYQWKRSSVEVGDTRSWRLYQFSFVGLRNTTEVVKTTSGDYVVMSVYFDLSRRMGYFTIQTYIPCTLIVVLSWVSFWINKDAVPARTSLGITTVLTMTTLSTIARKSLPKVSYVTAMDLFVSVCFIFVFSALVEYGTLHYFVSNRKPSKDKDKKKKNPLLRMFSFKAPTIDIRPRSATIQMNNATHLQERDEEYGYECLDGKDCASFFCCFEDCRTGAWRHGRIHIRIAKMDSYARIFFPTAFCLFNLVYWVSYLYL

## CC(C)CN(CC(C)C)C(=O)/C=C/C=C/c1ccc2c(c1)OCO2 [SCT-66]
[1]
  modulation of IGABA: positive allosteric modulatory effect by enhancing IGABA
[2]
  cation current through TRPV1 receptors: no current was induced
[2]; listed as SCT66
  cation current through TRPV1 receptors: none of the derivatives SCT29, SCT64 or SCT66 induced cation currents
Male mice (C57BI/6N) [3]; 0.3 mg/kg bodyweight, i.p.
  time spent on the open arms (OA) in % of the total time: 40.8 ± 3.2% and 38.1 ± 5.1%
Male mice (C57BI/6N) [3]; 3 mg/kg bodyweight, i.p.
  time spent on the open arms (OA) in % of the total time: 46.5 ± 6.6%
Male mice (C57BI/6N) [3]; i.p.
  total distance travelled in the EPM: no significant effect on ambulation
Male mice (C57BI/6N) [4]
  effect on total ambulation / total distance: reduced the total distance
PTZ-induced seizures; Mus musculus, ip, 0.5 h, i.p., Fig. 12, read-out: doses of first significant effects on seizure threshold
  minimal effective dose: ≥ 10 mg/kg

## CCN(CC)C(=O)/C=C/C=C/c1ccc2c(c1)OCO2 [SCT-54]
Male mice (C57BI/6N) [4]
  effect on total ambulation / total distance: no effect on ambulation
PTZ-induced seizures; Fig. 12
  effects on seizure threshold: particularly active at low concentrations

## CCCCN(CCCC)C(=O)/C=C/C=C/c1ccc2c(c1)OCO2 [SCT-29]
[1]
  modulation of IGABA: positive allosteric modulatory effect by enhancing IGABA
[2]
  cation current through TRPV1 receptors: no current was induced
[2]; listed as SCT29
  cation current through TRPV1 receptors: none of the derivatives SCT29, SCT64 or SCT66 induced cation currents
Male mice (C57BI/6N) [3]; 0.3 mg/kg bodyweight, i.p.
  time spent on the open arms (OA) in % of the total time: not statistically significant
Male mice (C57BI/6N) [4]
  effect on total ambulation / total distance: no effect on ambulation
PTZ-induced seizures; Fig. 12
  effects on seizure threshold: particularly active at low concentrations

## O=C(/C=C/C=C/c1ccc2c(c1)OCO2)N1CCCCC1 [piperine, Piperine]
Male mice (C57BI/6N) [3]; 0.1 mg/kg bodyweight, 30 min after i.p. injection
  time spent on the open arms (OA) in % of the total time: no significant effect
Male mice (C57BI/6N) [3]; 0.3 mg/kg bodyweight, i.p.
  time spent on the open arms (OA) in % of the total time: 42.7 ± 4.4%
Male mice (C57BI/6N) [3]; 1 mg/kg bodyweight, i.p.
  time spent on the open arms (OA) in % of the total time: 45.6 ± 6.6%
Male mice (C57BI/6N) [4]; i.p.
  reduction of ambulation compared to control littermates: more than 50%
  traveled distance (total ambulation): 16.5 ±3.8 m
PTZ-induced seizures; 3 mg/kg
  seizure threshold: 46.2 ± 5.44
PTZ-induced seizures; 10 mg/kg
  seizure threshold: 48.7 ± 2.13
PTZ-induced seizures; 30 mg/kg
  seizure threshold: 30.3 ± 3.43

## CCCCN(CCCC)C(=O)/C=C/C=C/c1cc(OC)c(OC)c(OC)c1 [SCT-68]
[2]
  cation current through TRPV1 receptors: no current was induced

## CCCN(CCC)C(=O)/C=C/C=C/c1ccc2c(c1)OCO2 [SCT-64]
[1]
  modulation of IGABA: positive allosteric modulatory effect by enhancing IGABA
[2]
  cation current through TRPV1 receptors: no current was induced
[2]; listed as SCT64
  cation current through TRPV1 receptors: none of the derivatives SCT29, SCT64 or SCT66 induced cation currents
Male mice (C57BI/6N) [3]; 0.3 mg/kg bodyweight, i.p.
  time spent on the open arms (OA) in % of the total time: 41.6 ± 3.2% and 44.2 ± 3.3%
Male mice (C57BI/6N) [3]; 10 mg/kg bodyweight, i.p.
  time spent on the open arms (OA) in % of the total time: 59.6 ± 4.9%
Male mice (C57BI/6N) [3]; i.p.
  total distance travelled in the EPM: reducing slightly the total ambulation at doses ≥1 mg/kg bodyweight
Male mice (C57BI/6N) [4]
  effect on total ambulation / total distance: reduced the total distance
PTZ-induced seizures; Fig. 12
  effects on seizure threshold: particularly active at low concentrations

## CC(C)N(C(=O)/C=C/C=C/c1ccc2c(c1)OCO2)C(C)C [SCT-46]
[2]
  cation current through TRPV1 receptors: no current was induced
